Measurements reported in the supplement of paper PMC11451515.

Legend:
Assay in all cases: AUC of viability dose-response curve (% viability x log10 dose units); higher = less sensitive
Conditions in all cases: 48 h
P12-Ichikawa = tested on: P12-Ichikawa
Method in brief: (§1)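 Area under the curve was integrated by trapezoidal rule from a log-logistic fit of normalised viability, with curves exceeding full viability scaled and quality-control failures removed. The fit had four parameters over log10 doses. Viability came from CellTiter-Glo One luminescence, normalised per plate to DMSO and cell-free wells, after leukemia cells adapted to each medium (500 or 1000 cells/well, 1536-well plates) were exposed to library compounds in DMSO for 48 h at 37°C. The 11 threefold doses ran from 47 μM to 0.79 nM.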

NOMO1 = tested on: NOMO1
Method in brief: as §1

SEM cells = tested on: SEM cells
Method in brief: as §1

[1] = RPMI 5 mM glucose + 10% dialyzed FBS

Row | SMILES | AUC of viability dose-response curve (P12-Ichikawa; HPLM + 10% dialyzed FBS) | AUC of viability dose-response curve (P12-Ichikawa; RPMI 5 mM glucose + 10% FBS) | AUC of viability dose-response curve (P12-Ichikawa; [1]) | AUC of viability dose-response curve (NOMO1; HPLM + 10% dialyzed FBS) | AUC of viability dose-response curve (NOMO1; RPMI 5 mM glucose + 10% FBS) | AUC of viability dose-response curve (NOMO1; [1]) | AUC of viability dose-response curve (SEM cells; HPLM + 10% dialyzed FBS) | AUC of viability dose-response curve (SEM cells; RPMI 5 mM glucose + 10% FBS) | AUC of viability dose-response curve (SEM cells; [1])
1 | O=C\1N(N\C=C1[N]2C=CN=N2)C3=NC=NC(=C3)N4CCOCC4 | 211 | 225 | 248 | 221 | 210 | 222 | – | – | –
2 | CC(/C=C/C(=O)NO)=C\[C@@H](C)C(=O)c1ccc(N(C)C)cc1 | 325 | 315 | 316 | 337 | 339 | 336 | 290 | 295 | 292
3 | CC(C)c1cc(C(=O)N2Cc3ccc(CN4CCN(C)CC4)cc3C2)c(O)cc1O | 374 | 342 | 348 | 320 | 317 | 323 | – | – | –
4 | CN1C(=O)C[C@H](C(=O)N[C@@H](Cc2cnc[nH]2)C(=O)N2CCC[C@H]2C(N)=O)NC1=O | 462 | 464 | 470 | 462 | 463 | 435 | 456 | 435 | 459
5 | Cc1[nH]c(/C=C2\C(=O)Nc3ccccc32)c(C)c1CCC(=O)O | 406 | 408 | 419 | 433 | 434 | 457 | 245 | 288 | 236
6 | CCOC(=O)c1cncn1[C@H](C)c1ccccc1 | 463 | 452 | 466 | 443 | 477 | 442 | 438 | 468 | 435
7 | CCC\C1=C\C(=O)NC(=S)N1 | 413 | 399 | 425 | 407 | 421 | 452 | – | – | –
8 | C[C@H]1[C@@H](C(=O)C[C@H]2O[C@@H]3O[C@]4(C)CC[C@H]5[C@H](C)CC[C@@H]([C@H]2C)[C@@]35OO4)O[C@@H]2O[C@]3(C)CC[C@H]4[C@H](C)CC[C@@H]1[C@@]24OO3 | 433 | 435 | 421 | 435 | 436 | 418 | 411 | 407 | 432
9 | CN1c2ccccc2C(=O)N2CCc3c([nH]c4ccccc34)C21 (stereo not given) | 470 | 454 | 451 | 445 | 466 | 434 | 453 | 438 | 459
10 | COC[C@H](c1ccc(C(F)(F)F)cc1)N1CCN(C2(C)CCN(C(=O)c3c(C)ncnc3C)CC2)C[C@H]1C.O=C(O)/C=C\C(=O)O | 469 | 454 | 467 | 409 | 411 | 424 | 445 | 410 | 450
11 | Nc1nc(N)c2nc(-c3cccc(O)c3)c(-c3cccc(O)c3)nc2n1 | 409 | 445 | 454 | 402 | 443 | 440 | 409 | 430 | 420
12 | N[S+](=O)([O-])c1cccc2c1C(=O)c1cccc(O)c1C2=O | 439 | 451 | 447 | 434 | 452 | 443 | 343 | 295 | 278
13 | ClC1=CC\2=C(NC(=O)\C(=C2N[C@@H]3CN4CCC3CC4)C5=NC6=C([NH]5)C=CC=C6)C=C1 | 302 | 263 | 291 | 286 | 257 | 276 | 211 | 200 | 218
14 | C[C@]12CC[C@H]3[C@@H](C\C=C/4C[C@@H](O)CC[C@]34C)[C@@H]1CCC2=O | 449 | 438 | 454 | 439 | 448 | 460 | 468 | 454 | 462
15 | C[C@@H](NC(=O)c1ncnc(N)c1Cl)c1ncc(C(=O)Nc2cc(C(F)(F)F)c(Cl)cn2)s1 | 461 | 449 | 448 | 451 | 460 | 453 | 470 | 467 | 467
16 | COc1ccc2c(c1)c(CC(=O)OCC(=O)O)c(C)n2C(=O)c1ccc(Cl)cc1 | 458 | 436 | 450 | 468 | 439 | 463 | 470 | 432 | 454
17 | CC1=C(CC(=O)O)c2cc(F)ccc2/C1=C\c1ccc([S+](C)[O-])cc1 (stereo not given) | 458 | 451 | 449 | 448 | 453 | 445 | 450 | 422 | 430
18 | CC(C)C[C@H](NC(=O)CNC(=O)c1cc(Cl)ccc1Cl)B(O)O | – | – | – | – | – | – | 190 | 190 | 177
19 | COc1cc2nc(-c3cc(F)ccc3O)nc(N[C@@H]3CNC[C@H]3C(C)(C)O)c2cc1OC | 436 | 429 | 410 | 449 | 463 | 455 | 274 | 283 | 227
20 | CN1CCN2c3ncccc3Cc3ccccc3C2C1 (stereo not given) | 470 | 460 | 463 | – | – | – | – | – | –
21 | CN(C)CCOc1ccc(-c2nc(-c3ccncc3)c(-c3ccc4c(c3)CC/C4=N\O)[nH]2)cc1 | 456 | 454 | 452 | 450 | 465 | 437 | 458 | 455 | 466
22 | COc1cc2nc(N3CCN(C(=O)C4CCCO4)CC3)nc(N)c2cc1OC (stereo not given) | 447 | 470 | 445 | 473 | 471 | 458 | 430 | 460 | 418
23 | NC(=O)c1cccc2nc(-c3ccc([C@H]4CCCN4)cc3F)[nH]c12 | 463 | 466 | 465 | 464 | 472 | 466 | 398 | 363 | 362
24 | c1ccc(CNc2nc(N3CCOc4ccccc43)nc3c2CCCC3)cc1 | 461 | 476 | 472 | 468 | 473 | 470 | 455 | 428 | 451

Row | SMILES | AUC of viability dose-response curve (P12-Ichikawa; HPLM + 10% dialyzed FBS) | AUC of viability dose-response curve (P12-Ichikawa; RPMI 5 mM glucose + 10% FBS) | AUC of viability dose-response curve (P12-Ichikawa; [1]) | AUC of viability dose-response curve (NOMO1; HPLM + 10% dialyzed FBS) | AUC of viability dose-response curve (NOMO1; RPMI 5 mM glucose + 10% FBS) | AUC of viability dose-response curve (NOMO1; [1]) | AUC of viability dose-response curve (SEM cells; HPLM + 10% dialyzed FBS) | AUC of viability dose-response curve (SEM cells; RPMI 5 mM glucose + 10% FBS) | AUC of viability dose-response curve (SEM cells; [1])
25 | CCC(=O)N[C@H]1CC[C@H](C(=O)N(C)c2ccc(-c3nc4ccccc4o3)cc2)C1 | 477 | 458 | 453 | 454 | 449 | 415 | – | – | –
26 | COCCOc1nc(-c2ccc(Cl)c(Cl)c2)n(-c2ccc(NC(=O)CCl)cc2)n1 | 469 | 450 | 421 | 460 | 408 | 433 | 444 | 430 | 430
27 | COC1=CC=C(C=C1O)C/2=C/C(=O)C3=C(O2)C=C(O)C=C3O | 440 | 446 | 381 | 466 | 428 | 437 | 419 | 456 | 456
28 | C[S+](=O)([O-])c1ccc(-c2cnc(N)c(C(=O)Nc3ccccc3)n2)cc1 | 462 | 453 | 449 | 435 | 462 | 455 | 413 | 423 | 408
29 | CN1\N=C(N)/C2=C[N]([C@@H]3O[C@H](CO[P](O)(O)=O)[C@@H](O)[C@H]3O)C4=C2C1=NC=N4 | 353 | 329 | 346 | 341 | 393 | 347 | – | – | –
30 | O=C(Cc1ccc(-c2ccc(OCCN3CCOCC3)cc2)cn1)NCc1ccccc1 | 200 | 205 | 222 | 294 | 263 | 277 | – | – | –
31 | OC(=O)C(CC/1=C/C(=O)NC2=CC=CC=C12)NC(=O)C3=CC=C(Cl)C=C3 (stereo not given) | 468 | 436 | 465 | 469 | 454 | 469 | 447 | 467 | 470
32 | COC1=C2C[C@@H](C)C[C@H](OC)[C@H](O)[C@@H](C)/C=C(\C)[C@H](OC(N)=O)[C@@H](OC)/C=C/C=C(\C)C(=O)NC(=CC1=O)C2=O | 416 | 410 | 399 | 430 | 438 | 440 | 402 | 396 | 395
33 | Cc1csc(NC(=O)c2sc3nc4c(c(C(F)(F)F)c3c2N)CCC4)n1 | 444 | 433 | 394 | 449 | 419 | 441 | 429 | 442 | 420
34 | COC/1=C/C=C2\C(=C/C1=O)[C@H](CCC3=CC(=C(OC)C(=C23)OC)OC)NC(C)=O | 54.5 | 46.5 | 64.7 | – | – | – | 80.3 | 49.8 | 54.6
35 | CCN(CC)CCCCNc1ncc2c(n1)N(C)C(=O)N(c1c(Cl)c(OC)cc(OC)c1Cl)C2 | 450 | 446 | 448 | 429 | 453 | 451 | 423 | 421 | 422
36 | NCCCCNCCCN | 458 | 434 | 445 | 438 | 460 | 460 | 373 | 427 | 388
37 | COC1=CC=CC(=C1N)\C2=C\C(=O)C3=C(O2)C=CC=C3 | 469 | 459 | 465 | 464 | 466 | 463 | 432 | 428 | 419
38 | ClC1=CC\2=C(OC3=C(C=CC=C3)\N=C2N4CCNCC4)C=C1 | 468 | 438 | 462 | 450 | 434 | 437 | 466 | 437 | 467
39 | Cn1cc(/C=C2\C(=O)Nc3cccnc32)c2ccccc21 | 414 | 442 | 437 | 464 | 451 | 449 | 430 | 421 | 415
40 | O=C(Nc1ncc(SCCN2CCCC2)s1)[C@]1(c2ccc([S+](=O)([O-])C3CC3)cc2)C[C@H]1C1CCCCC1 | 455 | 459 | 445 | 428 | 451 | 446 | 390 | 461 | 420
41 | CC[C@@]1(O)C(=O)OCC/2=C1/C=C3\N(CC4=CC5=CC(=CC=C5N=C34)O)C2=O | 180 | 176 | 181 | 251 | 261 | 271 | – | – | –
42 | Cn1c(=O)n(-c2ccc(C(C)(C)C#N)cc2)c2c3cc(-c4cnc5ccccc5c4)ccc3ncc21 | 337 | 315 | 325 | 344 | 354 | 315 | – | – | –
43 | CN1CCC[C@@H]1CCO[C@](C)(c1ccccc1)c1ccc(Cl)cc1 | 463 | 467 | 474 | 466 | 461 | 473 | 469 | 472 | 471
44 | CN(C)CCN(C)C(=O)c1ccc(NC(=O)Nc2ccc(-c3nc(N4CCOCC4)c4ccn(CC(F)(F)F)c4n3)cc2)cc1 | 417 | 359 | 360 | 327 | 393 | 371 | 339 | 325 | 341
45 | CN1\C(=C(\O)C2=C(C=CC=C2)[S+]1([O-])=O)C(=O)NC3=CC=CC=N3 | 397 | 400 | 425 | 422 | 428 | 461 | – | – | –
46 | COc1cc2c(Nc3ccc(Br)cc3F)ncnc2cc1OCC1CCN(C)CC1 | 419 | 396 | 398 | 373 | 373 | 380 | – | – | –
47 | CC[C@H](NC(=O)[C@H](C)NC)C(=O)N1C[C@@H](O)C[C@H]1Cc1c(-c2[nH]c3cc(F)ccc3c2C[C@@H]2C[C@H](O)CN2C(=O)[C@H](CC)NC(=O)[C@H](C)NC)[nH]c2cc(F)ccc12 | – | – | – | 347 | 323 | 362 | 469 | 442 | 437
